How the values were obtained:
Assay type in all cases: cell-based
[1] = system: ID1; test: ID1 mRNA real-time PCR in primary human lung fibroblasts
Method: FIG. 15. E4 reduces fibrosis in vitro by inducing expression of ID1, an inhibitor of TGF β, in primary human lung fibroblasts. Real-time PCR analysis was performed to determine the ID1 mRNA levels under the indicated conditions.

[2] = system: Egr-1; test: Egr-1 western blot in primary human lung fibroblasts; conditions: TGFβ followed by E4 after 60 minutes, harvested after 24 hours
Method: FIG. 16. E-4 reduces fibrosis in vitro by reducing levels of the master transcription factor Egr-1 in primary human lung fibroblasts. Reduction of Egr-1 levels parallels that of collagen, SMA, and fibronectin. Lane 1: vehicle (DMSO); Lane 2: E4; Lane 3: TGFβ, Lane 4 TGFβ followed by E4 after 60 minutes. The samples were harvested after 24 hours.
E4 also promotes the degradation of ECM components via induction and activation of matrix metalloprotease (MMP-2), an enzyme that degrades several ECM molecules including fibronectin and native and denatured collagens (FIG. 14). In addition, E4 increases levels of inhibitor of differentiation (ID)-1, a transcription factor that inhibits TGF-β effects (see FIG. 15). It was determined in a Western bloat analysis that E4 reduces the levels of the master switch transcription factor, Egr-1 (see FIG. 16) in primary human lung fibroblasts, treated and harvested after 24 hours. The reduction of Egr-1 levels parallels a reduction in collagen, SMA and fibronectin. Egr-1 is known to mediate the effects of several fibrotic agents (including TGF-β and bleomycin).

[3] = system: human skin explants; test: Ex vivo human skin fibrosis organ culture, dermal thickness
Method: Human abdominal skin was obtained from corrective plastic surgery. As previously described (Yasuoka et al., The Open Rheumatol J 2008; 2:17-22), subcutaneous fat tissue was removed uniformly and skin tissue was cut into 1.5 cm×1.5 cm sections. The following were injected intradermally in a total volume of 100 μl 1×PBS: rE alone (1-10 μg/ml), endostatin peptides alone (10 μg/ml), rE or endostatin peptides (1-20 μg/ml) in combination with TGF-β (10 ng/ml), and TGF-β alone (10 ng/ml). In some experiments, human skin was first injected with TGF-β for 48 h followed by recombinant endostain (rE) administration in the same injection site as TGF-β. Explants containing complete epidermal and dermal layers were cultured in an air liquid interface with the epidermal and keratin layers side up and exposed to air. The culture medium was replaced every other day. After 1 or 2 weeks, skin tissue corresponding to an area with 8-mm diameter centered around the injection site was harvested using disposable 8-mm Acu Punch® (Acuderm inc., Lauderdale, Fla.). Skin tissue was fixed in 10% formalin prior to embedding in paraffin.
Six μm sections of paraffin-embedded human and mouse skin tissues were stained with hematoxylin and eosin (H&E). In some experiments, sections were stained with Masson trichrome which identifies collagens. Images were taken on a Nikon Eclipse 800 microscope. The thickness of the dermis was measured in 6 random fields of each section using the image/J® software. Data are shown in arbitrary units.

[4] = system: MMP-2; test: MMP-2 gelatin zymography in primary human lung fibroblasts
Method: FIG. 14A-14B. A. E4 reduces fibrosis in vitro by inducing MMP-2 activity in primary human lung fibroblasts, thus resulting in increased degradation of collagen and other matrix proteins. Digital image of a gelatin zymography gel showing increased MMP-2 activity when primary human lung fibroblasts are treated with E-4 following TGFβ (lane 4). Lane 1: Vehicle (DMSO); Lane 2: E-4; Lane 3: TGF 3; Lane 4: TGF 3 followed by E4. B. Digital image showing that both total and active MMP-2 levels are increased in cells treated with TGFbeta and E-4.

[5] = system: human primary skin fibroblasts; test: TGF-β-induced ECM production in primary skin (dermal) fibroblasts, western blot; conditions: dermal fibroblasts from healthy controls, SSc or morphea patients
Method: Human primary lung and skin fibroblasts were cultured. The explanted lungs of normal organ donors, patients with SSc or IPF, and clinically involved skin of SSc patients, a morphea patient and healthy donors were used for primary fibroblast culture. Approximately 2-cm pieces of peripheral lung and skin were minced and fibroblasts were cultured in Dulbecco's modified Eagle's medium (DMEM; Mediatech, Herndon, Va.) supplemented with 10% FBS, penicillin, streptomycin, and anti-mycotic agent, as previously described (Feghali et al., Arthritis Rheum 1999; 42:1451-7). All the cells were used between passages 3-6.
Cellular lysates were obtained from cultured fibroblasts as previously described (Pilewski et al., Am J Pathol 2005; 166:399-407). […] Cellular lysates were analyzed by western blot. Signals were detected following incubation with horseradish peroxidase-conjugated secondary antibody and chemiluminescence (Perkin Elmer Life Sciences, Inc., Boston, Mass.). The intensity of individual bands with expected molecular sizes was semi-quantitatively analyzed using the image/J® software available at on the internet (/rsb.info.nih.gov/ij/index.html), and normalized to individual GAPDH intensity. […]

H-^133SYCETWRTEAPSATGQASSLLGGRLLGQSAASCHHAYIVLCIENSFMT^180-CONH2 (H-SYCETWRTEAPSATGQASSLLGGRLLGQSAASCHHAYIVLCIENSFMT-NH2; cysteine pairing not given here; UniProt P39060 1704-1751, looked up, fragment) [E4, amino acids 133-180 of human endostatin; differs from E3 by the presence of a carboxy-terminal amide]
levels of inhibitor of differentiation (ID)-1 [1]: increases | levels of Egr-1 [2]: reduces | TGF-β-induced skin fibrosis (dermal thickness), dose response ([3]; 1, 5, 10, 20 μg/ml with TGF-β 10 ng/ml, effect at 5-20 μg/ml): clearly ameliorated | dermal thickness, baseline effect ([3]; injected alone without TGF-β, rE 1, 5, 10 μg/ml, peptides 10 μg/ml): tendency towards reduction | development of fibrosis as measured by dermal thickness ([3]; peptides 10 μg/ml with TGF-β 10 ng/ml, vs TGF-β alone): significantly abolished | MMP-2 activity ([4]; E-4 following TGFβ, gelatin zymography): increased | total and active MMP-2 levels ([4]; cells treated with TGFbeta and E-4): increased | TGF-β-induced ECM production (FN, Col1α1) [5]: reduced

Reference: patent publication US10709769B2, “Use of endostatin peptides for the treatment of fibrosis” (University of Pittsburgh—Of the Commonwealth System of …, priority 2009, dated 2020)
